Data taken from patent publication US20030069232A1, “Topical treatment of ocular hypertension, glaucoma, ischemic retinopathy and age-related macular degeneration with ophthalmic formulation of dopamine antagonists” (priority 1999, published 2003).

Tested on: New Zealand white rabbit eyes
Test: Eye irritation in rabbit eyes (Draize Test)
Assay type: in vivo
Conditions: 50 μl of 1% droperidol; slit lamp biomicroscope
Method: 50 μl of 1% droperidol was used to test for eye irritation in New Zealand white rabbit eyes using the standard procedure of the Draize Test. […] Eyedrops were instilled in the eyes, and the responses of the eyes were examined with a slit lamp biomicroscope.

Q: How did the Eye irritation turn out when `O=C(CCCN1CC=C(n2c(=O)[nH]c3ccccc32)CC1)c1ccc(F)cc1` [droperidol, Droperidol] was run?
A: either absent or insignificant
